Measurements published in PubChem BioAssay AID248 (DTP/NCI, 2004).
“And” between values parts separate entries of the source, which are not always exact repeats. Equal values may be shown once. Inconclusive results and toxic doses are left out.

Test system: L1210 leukemia ip in BDF1 mice, survival T/C
Experiment: NCI In Vivo Anticancer Drug Screen. Data for tumor model L1210 Leukemia (intraperitoneal) in B6D2F1 (BDF1) mice
Settings: endpoint: mean survival time, higher = longer survival
Procedure, shortened: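 Mice bearing the transplanted tumor received compound or vehicle. Survival of the treated group was divided by that of the vehicle-treated control group to give the ratio.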

[1] = dose: 100.0 mg/kg/injection, schedule: Q01DX001 (ip), vehicle: saline with Tween-80
[2] = dose: 50.0 mg/kg/injection, schedule: Q01DX009 (ip), vehicle: saline
[3] = dose: 100.0 mg/kg/injection, schedule: Q01DX009 (ip), vehicle: saline
[4] = dose: 100.0 mg/kg/injection, schedule: Q01DX001 (ip), vehicle: carboxymethylcellulose (CMC)
[5] = dose: 200.0 mg/kg/injection, schedule: Q01DX001 (ip), vehicle: carboxymethylcellulose (CMC)
[6] = dose: 400.0 mg/kg/injection, schedule: Q01DX001 (ip), vehicle: carboxymethylcellulose (CMC)
[7] = dose: 100.0 mg/kg/injection, schedule: Q01DX009 (ip), vehicle: saline with Tween-80
[8] = dose: 200.0 mg/kg/injection, schedule: Q01DX009 (ip), vehicle: saline with Tween-80
[9] = dose: 100.0 mg/kg/injection, schedule: Q04DX003 (ip), vehicle: saline with Tween-80
[10] = dose: 200.0 mg/kg/injection, schedule: Q04DX003 (ip), vehicle: saline with Tween-80
[11] = dose: 400.0 mg/kg/injection, schedule: Q04DX003 (ip), vehicle: saline with Tween-80

SMILES: O=Nc1c(O)ccc2ccccc12
- T/C (dose: 3.12 mg/kg/injection, schedule: Q01DX009 (ip), vehicle: Klucel (hydroxypropylcellulose) (HPC)): 90 % of control
- T/C (dose: 5.0 mg/kg/injection, schedule: Q01DX001 (ip), vehicle: saline): 98 % of control
- T/C (dose: 6.25 mg/kg/injection, schedule: Q01DX009 (ip), vehicle: Klucel (hydroxypropylcellulose) (HPC)): 95 % of control
- T/C (dose: 10.0 mg/kg/injection, schedule: Q01DX001 (ip), vehicle: saline): 104 % of control
- T/C (dose: 12.5 mg/kg/injection, schedule: Q01DX009 (ip), vehicle: Klucel (hydroxypropylcellulose) (HPC)): 92 % of control
- T/C (dose: 20.0 mg/kg/injection, schedule: Q01DX001 (ip), vehicle: saline): 95 % of control
- T/C (dose: 25.0 mg/kg/injection, schedule: Q01DX001 (ip), vehicle: saline with Tween-80): 94 % of control
- T/C (dose: 25.0 mg/kg/injection, schedule: Q01DX009 (ip), vehicle: Klucel (hydroxypropylcellulose) (HPC)): 104 % of control
- T/C (dose: 40.0 mg/kg/injection, schedule: Q01DX001 (ip), vehicle: saline): 101 % of control
- T/C (dose: 50.0 mg/kg/injection, schedule: Q01DX001 (ip), vehicle: saline with Tween-80): 104 % of control
- T/C (dose: 80.0 mg/kg/injection, schedule: Q01DX001 (ip), vehicle: saline): 106 % of control
- T/C [1]: 91 % of control

SMILES: O=C(NOCCCl)Nc1ccccc1
- T/C (dose: 125.0 mg/kg/injection, schedule: Q01DX Z (ip), vehicle: carboxymethylcellulose (CMC)): 96 % of control
- T/C (dose: 200.0 mg/kg/injection, schedule: Q01DX Z (ip), vehicle: carboxymethylcellulose (CMC)): 96 % of control
- T/C (dose: 250.0 mg/kg/injection, schedule: Q01DX Z (ip), vehicle: carboxymethylcellulose (CMC)): 107 % of control
- T/C (dose: 500.0 mg/kg/injection, schedule: Q01DX Z (ip), vehicle: carboxymethylcellulose (CMC)): 95 % of control

SMILES: NCCOCCOCCN
- T/C [2]: 108 % of control
- T/C [3]: 87 % of control

SMILES: CN(C)c1ccc(C#N)cc1
- T/C (dose: 1.5 mg/kg/injection, schedule: Q04DX002 (ip), vehicle: Klucel (hydroxypropylcellulose) (HPC)): 107 % of control
- T/C (dose: 3.1 mg/kg/injection, schedule: Q04DX002 (ip), vehicle: Klucel (hydroxypropylcellulose) (HPC)): 107 % of control
- T/C (dose: 6.25 mg/kg/injection, schedule: Q04DX002 (ip), vehicle: Klucel (hydroxypropylcellulose) (HPC)): 97 % of control and 111 % of control

SMILES: COC1OC(CI)C(O)C(O)C1O (configuration not stated)
- T/C (dose: 100.0 mg/kg/injection, schedule: Q01DX001 (ip), vehicle: saline): 109 % of control
- T/C (dose: 200.0 mg/kg/injection, schedule: Q01DX001 (ip), vehicle: saline): 109 % of control
- T/C (dose: 400.0 mg/kg/injection, schedule: Q01DX001 (ip), vehicle: saline): 120 % of control

SMILES: NC(N)=NN=C(CO)CO
- T/C (dose: 1.0 mg/kg/injection, schedule: Q01DX Z (ip), vehicle: methylcellulose (MC)): 103 % of control
- T/C (dose: 2.0 mg/kg/injection, schedule: Q01DX Z (ip), vehicle: methylcellulose (MC)): 111 % of control
- T/C (dose: 4.0 mg/kg/injection, schedule: Q01DX Z (ip), vehicle: methylcellulose (MC)): 109 % of control
- T/C (dose: 8.0 mg/kg/injection, schedule: Q01DX Z (ip), vehicle: methylcellulose (MC)): 117 % of control
- T/C (dose: 15.0 mg/kg/injection, schedule: Q01DX Z (oral), vehicle: methylcellulose (MC)): 89 % of control
- T/C (dose: 30.0 mg/kg/injection, schedule: Q01DX Z (ip), vehicle: methylcellulose (MC)): 172 % of control
- T/C (dose: 30.0 mg/kg/injection, schedule: Q01DX Z (ip), vehicle: saline): 110 % of control
- T/C (dose: 30.0 mg/kg/injection, schedule: Q01DX Z (oral), vehicle: methylcellulose (MC)): 102 % of control
- T/C (dose: 60.0 mg/kg/injection, schedule: Q01DX Z (ip), vehicle: saline): 108 % of control
- T/C (dose: 60.0 mg/kg/injection, schedule: Q01DX Z (oral), vehicle: methylcellulose (MC)): 93 % of control
- T/C (dose: 120.0 mg/kg/injection, schedule: Q01DX Z (ip), vehicle: saline): 103 % of control
- T/C (dose: 120.0 mg/kg/injection, schedule: Q01DX Z (oral), vehicle: methylcellulose (MC)): 100 % of control
- T/C (dose: 120.0 mg/kg/injection, schedule: Q01DX Z (oral), vehicle: saline): 100 % of control
- T/C (dose: 240.0 mg/kg/injection, schedule: Q01DX Z (oral), vehicle: saline): 100 % of control
- T/C (dose: 480.0 mg/kg/injection, schedule: Q01DX Z (oral), vehicle: saline): 101 % of control
- T/C (dose: 960.0 mg/kg/injection, schedule: Q01DX Z (oral), vehicle: saline): 101 % of control

SMILES: O/N=C1\c2ccccc2-c2ccc(Br)cc21
- T/C [4]: 97 % of control
- T/C [5]: 117 % of control
- T/C [6]: 103 % of control

SMILES: COc1cccc(C(=O)O)c1O
- T/C (dose: 75.0 mg/kg/injection, schedule: Q01DX001 (ip), vehicle: acetone): 101 % of control
- T/C (dose: 150.0 mg/kg/injection, schedule: Q01DX001 (ip), vehicle: acetone): 98 % of control

SMILES: C=CCNc1n[nH]c(=S)s1
- T/C [7]: 101 % of control
- T/C [8]: 95 % of control
- T/C (dose: 400.0 mg/kg/injection, schedule: Q01DX009 (ip), vehicle: saline with Tween-80): 98 % of control

SMILES: COC(=O)C(Br)C(C)OC (configuration not stated)
- T/C [3]: 96 % of control
- T/C (dose: 200.0 mg/kg/injection, schedule: Q01DX009 (ip), vehicle: saline): 101 % of control

SMILES: NC(=O)/C=C/C(=O)O
- T/C [1]: 97 % of control
- T/C [7]: 98 % of control and 101 % of control
- T/C (dose: 100.0 mg/kg/injection, schedule: Q04DX002 (ip), vehicle: Klucel (hydroxypropylcellulose) (HPC)): 88 % of control
- T/C (dose: 100.0 mg/kg/injection, schedule: Q04DX002 (ip), vehicle: saline with Tween-80): 94 % of control and 97 % of control
- T/C [9]: 92 % of control
- T/C (dose: 200.0 mg/kg/injection, schedule: Q01DX001 (ip), vehicle: saline with Tween-80): 108 % of control
- T/C [8]: 98 % of control and 116 % of control
- T/C (dose: 200.0 mg/kg/injection, schedule: Q04DX002 (ip), vehicle: Klucel (hydroxypropylcellulose) (HPC)): 88 % of control
- T/C (dose: 200.0 mg/kg/injection, schedule: Q04DX002 (ip), vehicle: saline with Tween-80): 97 % of control and 99 % of control
- T/C [10]: 106 % of control
- T/C (dose: 400.0 mg/kg/injection, schedule: Q01DX001 (ip), vehicle: saline with Tween-80): 96 % of control
- T/C (dose: 400.0 mg/kg/injection, schedule: Q04DX002 (ip), vehicle: Klucel (hydroxypropylcellulose) (HPC)): 91 % of control
- T/C (dose: 400.0 mg/kg/injection, schedule: Q04DX002 (ip), vehicle: saline with Tween-80): 90 % of control
- T/C [11]: 94 % of control

SMILES: Cc1ccc(S(=O)(=O)N2CCC=Cc3ccccc32)cc1
- T/C [4]: 110 % of control
- T/C [5]: 102 % of control
- T/C [6]: 107 % of control

SMILES: O=C(C[n+]1ccccc1)CC(O)(C(F)(F)F)C(F)(F)F
- T/C [9]: 104 % of control
- T/C [10]: 103 % of control
- T/C [11]: 98 % of control

SMILES: COc1cccc(NC(=O)NCc2ccco2)c1
- T/C (dose: 100.0 mg/kg/injection, schedule: Q01DX009 (ip), vehicle: Klucel (hydroxypropylcellulose) (HPC)): 106 % of control
- T/C (dose: 200.0 mg/kg/injection, schedule: Q01DX009 (ip), vehicle: Klucel (hydroxypropylcellulose) (HPC)): 108 % of control
- T/C (dose: 400.0 mg/kg/injection, schedule: Q01DX009 (ip), vehicle: Klucel (hydroxypropylcellulose) (HPC)): 103 % of control

SMILES: CC1(C)CCC(C)(C)c2cc(Br)ccc21
- T/C [4]: 103 % of control
- T/C [5]: 95 % of control
- T/C [6]: 95 % of control

SMILES: CC(N)Cc1cn(C)c2ccccc12 (configuration not stated)
- T/C (dose: 6.25 mg/kg/injection, schedule: Q01DX009 (ip), vehicle: saline): 96 % of control
- T/C (dose: 12.5 mg/kg/injection, schedule: Q01DX009 (ip), vehicle: saline): 105 % of control
- T/C (dose: 25.0 mg/kg/injection, schedule: Q01DX009 (ip), vehicle: saline): 103 % of control
- T/C (dose: 25.0 mg/kg/injection, schedule: Q04DX003 (ip), vehicle: saline): 101 % of control
- T/C [2]: 105 % of control
- T/C (dose: 50.0 mg/kg/injection, schedule: Q04DX003 (ip), vehicle: saline): 95 % of control
- T/C [3]: 97 % of control
- T/C (dose: 100.0 mg/kg/injection, schedule: Q04DX003 (ip), vehicle: saline): 104 % of control

SMILES: O=C(O)Cc1csc2ccccc12
- T/C (dose: 100.0 mg/kg/injection, schedule: Q01DX001 (ip), vehicle: other): 100 % of control
- T/C (dose: 200.0 mg/kg/injection, schedule: Q01DX001 (ip), vehicle: other): 97 % of control
- T/C (dose: 400.0 mg/kg/injection, schedule: Q01DX001 (ip), vehicle: other): 103 % of control
